What was measured:
cS1P5 receptor [1] = target: T1, cS1P5 receptor (Canis lupus familiaris, UniProt A0A8I3Q0H0); experiment: S1P ligand binding assay with transfected CHO cells expressing the cS1P5 receptor; design: species or system Canis (dog); settings: 33P-S1P, 60 minutes at room temperature, FIG. 3
Method: The transfected CHO cells from Example 2 expressing the cS1P5 receptor were evaluated for the ability of the cS1P5 receptor expressed in the cells to properly integrate into the cell membrane and bind S1P.
Transfected CHO cells from Example 2 were harvested with enzyme-free dissociation solution (Specialty Media, Lavallette, N.J.). The cells were washed once in cold PBS and suspended in S1P binding buffer (50 mM HEPES-Na, pH 7.5, 5mM MgCl2, 1 mM CaCl2, 0.5% FAF-BSA). ^33P-S1P was synthesized enzymatically from γ^33P-ATP and sphingosine using a crude extract with sphingosine kinase activity in a reaction mix containing 50 mM KH2PO4, 1 mM mercaptoethanol, 1 mM Na3VO4, 25 mM KF, 2 mM semicarbazide, 1 mM Na2EDTA, 5 mM MgCl2, […], 0.1% TritonX-114, and 1 mCi γ^33P-ATP (NEN; specific activity 2000 Ci/mmol). Reaction products were extracted with butanol and ^33P-sphingosine-1-phosphate was purified by HPLC.
^33P-S1P (0.1 uCi/ml) was sonicated with 0.2 nM sphingosine-1-phosphate dissolved in binding buffer; 100 μL of the mixture was added to 100 μL cells (1×10^5). Binding was performed for 60 minutes at room temperature. […] After drying the filter plates for 30 minutes, 50 μL of MICROSCINT 20 was added to each well and binding was measured with a Packard Top Count. Non-specific binding was defined as the amount of radioactivity remaining in the presence of 200 nM cold S1P.

cS1P5 receptor [2] = target: T1, cS1P5 receptor; experiment: 35S-GTPγS binding assay with membranes from transfected CHO cells expressing the cS1P5 receptor; assay type: biochemical, Canis (dog); settings: 5 μM GDP, 100 pM 35S-GTPγS, one hour at room temperature, FIG. 4, read-out: EC50 (35S-GTPγS binding, coupling GTP to Gα)
Method: Functional coupling of S1P5 receptor to G proteins was measured in a ^35S-GTPγS binding assay. Membranes were prepared from transfected cells by homogenization in ice cold 20 mM HEPES pH 7.4, 10 mM EDTA using a Kinematica polytron (setting 5, for 10 seconds). Homogenates were centrifuged at 48,000×g for 15 minutes at 4° C. and the pellet suspended in 20 mM HEPES pH 7.4, 0.1 mM EDTA. Following a second centrifugation, the final pellet was suspended in 20 mM HEPES pH 7.4, 100 mM NaCl, 10 mM MgCl2. Membranes were incubated in 200 μL with 5 μM GDP, various concentrations of S1P (sonicated in 1% BSA), and 100 pM ^35S-GTPγS (NEN; specific activity 1250 Ci/mmol) in 96 well microtiter dishes. Binding was performed for one hour at room temperature, and terminated by harvesting the membranes onto GF/B filter plates with a Packard Filtermate Universal Harvester. After drying the filter plates for 30 min, 40 μL of MICROSCINT 20 was added to each well and binding was measured on a Packard Top Count scintillation counter.

EC50 (cS1P5 receptor [1]): ~0.21 nM
EC50 (cS1P5 receptor [2]): ~0.79 nM
SMILES: CCCCCCCCCCCCC/C=C/[C@@H](O)[C@@H](N)COP(=O)(O)O [S1P, sphingosine-1-phosphate]

Reference: patent US20090191578A1, “Canis sphingosine 1-phosphate receptor isoform 5” (MERCK & CO., INC, priority 2004, published 2009)
